Data on ten compounds can be found in ChEMBL document CHEMBL1201862, “PubChem BioAssay data set” (2004).

SMILES strings stand for the structures.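 Tested at 5 concentrations; 48 h exposure; 96-well plates; endpoints linearly interpolated, else capped at highest concentration. GI50 = concentration required for 50% inhibition of growth.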 The source made the active and inactive calls. No stated cut-off is given here; in the data, active = GI50 up to about 1.1 µM and inactive = higher. Where only a bound is given, the exact number is not on record here.

Test systems include 786-0; CAKI-1; COLO 205; DU-145; EKVX; HOP-92; LOX IMVI; M14; MDA-MB-231; MDA-N; MOLT-4; NCI-H226; OVCAR-4; RXF 393; SF-268; SF-295; SK-MEL-28; SNB-75; T47D; UACC-257.
Common to all, as to assay: NCI-60 cell line screen, 48 h

As to `Cc1cccc2c1CC(C1OC(=O)c3ccccc31)C2=O` (stereo not given), the GI50 in the assay with 786-0, in the assay on CAKI-1, in the assay with COLO 205, with DU-145, with EKVX and with HOP-92 was > 100 µM (inactive) throughout. For the same compound, the GI50 in the assay with LOX IMVI, in the assay on M14, with MDA-MB-231, in the assay on MDA-N, in the assay on MOLT-4 and in the assay with NCI-H226 was > 100 µM (inactive) each time. In addition, the GI50 with OVCAR-4, in the assay with RXF 393, in the assay on SF-268, with SF-295, in the assay with SK-MEL-28 and in the assay on SNB-75 was > 100 µM (inactive) each time. For the same compound, the GI50 with T47D and with UACC-257 was > 100 µM (inactive) each time.

Take `Cc1cc(N2CCN(C)CC2)n2nc(-c3ccc(Cl)cc3)nc2n1`: the GI50 with 786-0 was 50.7 µM (inactive); in the assay on CAKI-1, > 100 µM (inactive); in the assay on COLO 205, 81.7 µM (inactive); with DU-145 it was > 100 µM (inactive); in the assay with EKVX it was 80.5 µM (inactive); with HOP-92 it was > 100 µM (inactive). Further, the GI50 is 61.1 µM (inactive) in the assay on LOX IMVI; > 100 µM (inactive) in the assay with M14; > 100 µM (inactive) in the assay on MDA-MB-231; 92.9 µM (inactive) in the assay on MDA-N; 34.8 µM (inactive) in the assay on MOLT-4; > 100 µM (inactive) in the assay on NCI-H226. The GI50 was > 100 µM (inactive) in the assay with OVCAR-4; 31.5 µM (inactive) with RXF 393; > 100 µM (inactive) in the assay with SF-268; 91.2 µM (inactive) in the assay with SF-295; 91.8 µM (inactive) in the assay on SK-MEL-28; 66.7 µM (inactive) in the assay with SNB-75. Also, the GI50 in the assay on T47D was > 100 µM (inactive); with UACC-257 it was 77.6 µM (inactive).

Regarding `O=C1NC(N2CCCCC2)=N/C1=C\c1ccccc1O`, the GI50 with 786-0, in the assay on CAKI-1, with COLO 205, in the assay on DU-145, in the assay with EKVX and in the assay with HOP-92 was > 100 µM (inactive) throughout. Moreover, the GI50 in the assay on LOX IMVI was > 100 µM (inactive); with M14 it was > 100 µM (inactive); in the assay with MDA-MB-231 it was > 100 µM (inactive); with MDA-N it was > 100 µM (inactive); in the assay on MOLT-4, > 100 µM (inactive); in the assay with NCI-H226, 36.6 µM (inactive). Besides, the GI50 is 13 µM (inactive) in the assay on OVCAR-4; > 100 µM (inactive) in the assay on RXF 393; > 100 µM (inactive) in the assay on SF-268; > 100 µM (inactive) in the assay on SF-295; > 100 µM (inactive) in the assay with SK-MEL-28; 27.9 µM (inactive) in the assay with SNB-75. Moreover, the GI50 in the assay with T47D and in the assay on UACC-257 was > 100 µM (inactive) throughout.

As to `NC(=O)NCCCC(NC(=O)OCCCCCn1ccc(=O)[nH]c1=O)C(=O)O` (stereo not given), the GI50 in the assay on 786-0, in the assay on CAKI-1, with COLO 205, with DU-145, in the assay with EKVX and in the assay with HOP-92 was > 100 µM (inactive) each time. Moreover, the GI50 in the assay with LOX IMVI is > 100 µM (inactive); in the assay on M14 it was > 100 µM (inactive); in the assay with MDA-MB-231 it was > 100 µM (inactive); in the assay on MDA-N, > 100 µM (inactive); in the assay on MOLT-4 it was > 100 µM (inactive); in the assay with NCI-H226 it was 63.2 µM (inactive). In addition, the GI50 with OVCAR-4, in the assay on RXF 393, with SF-268, in the assay with SF-295, in the assay on SK-MEL-28 and in the assay on SNB-75 was > 100 µM (inactive) each time. The GI50 in the assay on T47D and in the assay with UACC-257 was > 100 µM (inactive) in each case.

On to `COC(=O)CC1C=CC(C)(OC)OO1` (stereo not given), for which the GI50 in the assay with 786-0 is > 100 µM (inactive); in the assay with CAKI-1, > 100 µM (inactive); in the assay with COLO 205, 55.7 µM (inactive); in the assay on DU-145, > 100 µM (inactive); with EKVX it was > 100 µM (inactive); in the assay on HOP-92, > 100 µM (inactive). Further, the GI50 is 48.3 µM (inactive) in the assay with LOX IMVI; > 100 µM (inactive) with M14; > 100 µM (inactive) with MDA-MB-231; > 100 µM (inactive) with MDA-N; > 10 µM (inactive) in the assay with MOLT-4; > 100 µM (inactive) with NCI-H226. Besides, the GI50 with OVCAR-4 is 97.9 µM (inactive); in the assay with RXF 393, 51.1 µM (inactive); in the assay on SF-268, > 100 µM (inactive); with SF-295, > 100 µM (inactive); with SK-MEL-28 it was > 100 µM (inactive); in the assay on SNB-75, > 100 µM (inactive). Moreover, the GI50 in the assay with T47D and in the assay on UACC-257 was > 100 µM (inactive) throughout.

As to `COC(=O)c1ccccc1C1CN=NC12Cc1ccc3ccccc3c1C2=O` (stereo not given), the GI50 is > 100 µM (inactive) in the assay with 786-0; > 100 µM (inactive) with CAKI-1; > 100 µM (inactive) in the assay on COLO 205; > 100 µM (inactive) in the assay on DU-145; > 100 µM (inactive) in the assay on EKVX; 97.9 µM (inactive) in the assay with HOP-92. The GI50 in the assay with LOX IMVI is > 100 µM (inactive); in the assay on M14 it was > 100 µM (inactive); in the assay with MDA-MB-231, > 100 µM (inactive); in the assay with MDA-N it was > 100 µM (inactive); in the assay with MOLT-4, 57.3 µM (inactive); in the assay with NCI-H226 it was > 100 µM (inactive). In addition, the GI50 in the assay with OVCAR-4 is > 100 µM (inactive); in the assay on RXF 393 it was 78.3 µM (inactive); in the assay on SF-268 it was > 100 µM (inactive); with SF-295, 38.5 µM (inactive); in the assay with SK-MEL-28, > 100 µM (inactive); with SNB-75, > 100 µM (inactive). Further, the GI50 was 21.1 µM (inactive) in the assay on T47D and > 100 µM (inactive) in the assay on UACC-257.

For the compound `FC(F)(F)C1(c2ccccc2)SCc2nc3ccccc3n21` (stereo not given), the GI50 in the assay on 786-0 was > 100 µM (inactive); in the assay on CAKI-1, > 100 µM (inactive); in the assay with COLO 205, > 100 µM (inactive); in the assay with DU-145, > 100 µM (inactive); in the assay on EKVX it was > 100 µM (inactive); with HOP-92, 47.2 µM (inactive). For the same compound, the GI50 is 97.5 µM (inactive) with LOX IMVI; > 100 µM (inactive) in the assay with M14; > 100 µM (inactive) in the assay with MDA-MB-231; 38.3 µM (inactive) in the assay with MDA-N; 61.7 µM (inactive) in the assay with MOLT-4; > 100 µM (inactive) with NCI-H226. For the same compound, the GI50 is > 100 µM (inactive) in the assay on OVCAR-4; > 100 µM (inactive) in the assay with RXF 393; > 100 µM (inactive) in the assay on SF-268; > 100 µM (inactive) with SF-295; > 100 µM (inactive) in the assay with SK-MEL-28; 88.1 µM (inactive) in the assay with SNB-75. The figures for the GI50 in the assay on T47D and with UACC-257 were 62.8 µM (inactive) and > 100 µM (inactive), respectively.

`Cc1nn(C(=O)c2ccccc2O)c2c1C(c1ccc([N+](=O)[O-])cc1)SC(=N)N2` (stereo not given): the GI50 in the assay on 786-0 was > 5.24 µM (inactive); in the assay on CAKI-1, 2.19 µM (inactive); in the assay with COLO 205, > 8.61 µM (inactive); in the assay on DU-145, 3.64 µM (inactive); in the assay on EKVX, > 10 µM (inactive); in the assay on HOP-92 it was 1.55 µM (inactive). The GI50 was 3.4 µM (inactive) in the assay on LOX IMVI; 7.19 µM (inactive) in the assay on M14; > 5.94 µM (inactive) with MDA-MB-231; 2.89 µM (inactive) in the assay on MDA-N; 4.94 µM (inactive) in the assay on MOLT-4; > 4.12 µM (inactive) in the assay with NCI-H226. Moreover, the GI50 was 3.56 µM (inactive) with OVCAR-4; 2.54 µM (inactive) with RXF 393; 6.68 µM (inactive) with SF-268; 3.13 µM (inactive) in the assay on SF-295; > 10 µM (inactive) in the assay on SK-MEL-28; 0.769 µM (active) with SNB-75. Besides, the GI50 is 5.71 µM (inactive) in the assay on T47D and 3.21 µM (inactive) in the assay with UACC-257.

For the compound `N[C@@H](Cc1ccc2oc3cc(=O)c4ccccc4c-3nc2c1)C(=O)O`, the GI50 in the assay on 786-0 was > 100 µM (inactive); with CAKI-1 it was > 100 µM (inactive); in the assay on COLO 205, 11.5 µM (inactive); with DU-145, 19.5 µM (inactive); in the assay with EKVX, > 100 µM (inactive); in the assay with HOP-92, > 100 µM (inactive). For the same compound, the GI50 was 37.8 µM (inactive) with LOX IMVI; 15.3 µM (inactive) in the assay with M14; > 100 µM (inactive) in the assay on MDA-MB-231; 16.6 µM (inactive) in the assay with MDA-N; 40.7 µM (inactive) in the assay on MOLT-4; 34 µM (inactive) with NCI-H226. Further, the GI50 with OVCAR-4 is > 100 µM (inactive); in the assay on RXF 393 it was > 100 µM (inactive); with SF-268 it was > 100 µM (inactive); in the assay with SF-295 it was 30.4 µM (inactive); in the assay with SK-MEL-28 it was 62.4 µM (inactive); in the assay with SNB-75 it was 15 µM (inactive). Moreover, the figures for the GI50 in the assay on T47D and in the assay on UACC-257 were > 100 µM (inactive) and 18.1 µM (inactive), respectively.

For the compound `C=C(C)C1CC2(C)C(C)CC(O)CC2C(OC(=O)C=C(C)C)C1O` (stereo not given), the GI50 was > 100 µM (inactive) in the assay on 786-0; 43.3 µM (inactive) in the assay on CAKI-1; 16.3 µM (inactive) with COLO 205; 60.5 µM (inactive) with DU-145; 34.8 µM (inactive) in the assay on EKVX; 23.2 µM (inactive) in the assay on HOP-92. Further, the GI50 was 55 µM (inactive) in the assay with LOX IMVI; 33.7 µM (inactive) in the assay on M14; 24.5 µM (inactive) in the assay on MDA-MB-231; 36.4 µM (inactive) with MDA-N; 18.1 µM (inactive) with MOLT-4; 0.933 µM (active) in the assay on NCI-H226. Further, the GI50 in the assay with OVCAR-4 was 29.5 µM (inactive); in the assay on RXF 393 it was 26.9 µM (inactive); in the assay with SF-268, 23.7 µM (inactive); with SF-295 it was 23 µM (inactive); in the assay with SK-MEL-28 it was 51.2 µM (inactive); in the assay on SNB-75 it was 11.6 µM (inactive). Also, the values for the GI50 with T47D and in the assay with UACC-257 were 31.8 µM (inactive) and 53.1 µM (inactive), respectively.
